Structures can show the parent of a compound that is named as a salt. Where two headings read alike, the source gives them in different places.
Assays:
muscarinic receptors [1] = assay: Radio ligand binding: displacement of the muscarinic agonist 3H-Oxotremorine-M (3H-OXO-M), rat cerebral cortex; parameters: species or system Hooded Lister rats; settings: 2 nM 3H-OXO-M, rat cerebral cortex membranes, 2 mM magnesium chloride, 37° C., 30 min
muscarinic receptors [2] = assay type: binding, Hooded Lister rats; settings: 0.27 nM 3H-QNB, rat cerebral cortex membranes, 37° C., 30 min

How did the IC50 (muscarinic receptors [1]) turn out when `Nc1noc(/C=C2\CN3CCC2C3)n1` (racemic) [Example E1, (±) Z 3-([3-Amino-1,2,4-oxadiazol-5-yl]methin)-1-azabicyclo[2.2.1]heptane] was run?
Its IC50 is 11.8 nM.

And the IC50 (muscarinic receptors [2])?
Its IC50 is 3200 nM.

Which results are given for `Cc1noc(/C=C2\CN3CCC2C3)n1` (racemic) [Example E2, (±) Z 3-([3-Methyl-1,2,4-oxadiazol-5-yl]methin)-1-azabicyclo[2.2.1]heptane oxalate salt]?
IC50 (muscarinic receptors [1]): 30 nM; IC50 (muscarinic receptors [2]): 1900 nM

With `C(=C1CN2CCC1C2)c1cnco1` (racemic) [Example E4, (±)E/Z 3-([1,3-Oxazol-5-yl]methin)-1-azabicyclo[2.2.1]heptane oxalate salt] as the compound, how does the IC50 (muscarinic receptors [1]) read?
Its IC50 is 294 nM.

And the IC50 (muscarinic receptors [2])?
Its IC50 is 27900 nM.

Which IC50 (muscarinic receptors [1]) does the source give for `C(=C1/CN2CCC1C2)/c1ncco1` (racemic) [Example E5, (±) Z 3-([1,3-Oxazol-2-yl]methin)-1-azabicyclo[2.2.1]heptane] here?
The IC50 was 8.6 nM.

And the IC50 (muscarinic receptors [2])?
The IC50 was 1800 nM.

`Nc1noc(C=C2CC3CCN(C2)C3)n1` (racemic) [Example E6, (±)E/Z 3-([3-Amino-1,2,4-oxadiazol-5-yl]methin)-1-azabicyclo[3.2.1]octane] was tested. Which IC50 (muscarinic receptors [1]) did it give?
The IC50 was 520 nM.

What about the IC50 (muscarinic receptors [2]) of the same compound?
The IC50 was 5700 nM.

`C(=C1/CN2CCC1C2)/c1nccs1` (racemic) [Example E10, (±) Z 3-([1,3-Thiazol-2-yl]methin)-1-azabicyclo[2.2.1]heptane oxalate salt] was tested. Which IC50 (muscarinic receptors [1]) did it give?
Its IC50 is 165 nM.

And the IC50 (muscarinic receptors [2])?
The IC50 was 2500 nM.
